In patent US9284330B2 (priority 2011, dated 2016):
Like-named read-outs stand apart in the source and are kept apart here.

Assays:
acetylcholinesterase = acetylcholinesterase (Electrophorus electricus (Electric eel) (Gymnotus electricus), UniProt O42275); experiment: biochemical
L-type Ca2+ channel [1] = experiment: Blocking of L-type Ca2+ channel by high content screening analyzer, KCl-induced calcium ion influx in SH-SY5Y cells (Fluo-4-AM)
L-type Ca2+ channel [2] = experiment: Blocking of L-type Ca2+ channel by patch clamp, calcium current in rat dorsal root ganglion cells; format: cell-based; settings: whole cell patch clamp
[3] = tested on: primary cortical neuron cells; settings: 24 h incubation

acetylcholinesterase, sequence (O42275 whole entry, looked up): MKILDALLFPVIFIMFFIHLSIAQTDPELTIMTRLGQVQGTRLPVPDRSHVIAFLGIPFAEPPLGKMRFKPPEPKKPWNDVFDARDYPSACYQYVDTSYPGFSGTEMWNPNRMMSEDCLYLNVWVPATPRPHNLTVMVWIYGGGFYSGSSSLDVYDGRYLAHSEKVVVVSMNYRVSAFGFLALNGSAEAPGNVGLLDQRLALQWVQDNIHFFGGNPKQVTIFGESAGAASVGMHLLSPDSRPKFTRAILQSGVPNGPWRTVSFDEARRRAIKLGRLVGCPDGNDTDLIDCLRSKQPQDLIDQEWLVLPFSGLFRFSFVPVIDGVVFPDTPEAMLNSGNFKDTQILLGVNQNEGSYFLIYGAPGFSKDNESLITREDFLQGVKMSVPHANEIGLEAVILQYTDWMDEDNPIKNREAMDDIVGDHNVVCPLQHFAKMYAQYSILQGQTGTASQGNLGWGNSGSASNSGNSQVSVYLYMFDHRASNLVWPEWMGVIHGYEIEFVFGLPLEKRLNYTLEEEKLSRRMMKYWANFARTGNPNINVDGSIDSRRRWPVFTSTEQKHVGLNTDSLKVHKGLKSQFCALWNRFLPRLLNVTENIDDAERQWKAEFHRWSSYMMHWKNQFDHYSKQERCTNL

SMILES | IC50 (acetylcholinesterase) [µM] | Inhibition rate of KCl-induced calcium ion influx (L-type Ca2+ channel [1]; 10 μM compound) [%] | Inhibition rate of KCl-induced calcium ion influx (L-type Ca2+ channel [1]; 50 μM compound) [%] | other results
CCOC(=O)C1=C(C)Nc2nc3c(c(N)c2C1c1cccc(C(F)(F)F)c1)CC(C)(C)CC3 (centres unmarked) [Compound S4, 5-amino-4-(3-trifluoromethylphenyl)-2,7,7-trimethyl-1,4,6,7,8,9-hexahydrobenzo[b][1,8]naphthyridine-3-carboxylic acid ethyl ester] | 1.05 | 64.82 | 85.17 | –
COC(=O)C1=C(C)Nc2nc3c(c(N)c2C1c1ccccc1)CC(C)(C)CC3 (centres unmarked) [Compound S7, 5-amino-4-phenyl-2,7,7-trimethyl-1,4,6,7,8,9-hexahydrobenzo[b][1,8]naphthyridine-3-carboxylic acid methyl ester] | 1.38 | 1.01 | 72.98 | –
C=CCOC(=O)C1=C(C)Nc2nc3c(c(N)c2C1c1cccc(F)c1)CC(C)(C)CC3 (centres unmarked) [Compound S35, 5-amino-4-(3-fluorophenyl)-2,7,7-trimethyl-1,4,6,7,8,9-hexahydrobenzo[b][1,8]napht hyridine-3-carboxylic acid allyl ester] | 1.79 | – | – | –
CCOC(=O)C1=C(C)Nc2nc3c(c(N)c2C1c1ccc(C(F)(F)F)cc1)CC(C)CC3 (centres unmarked) [Compound S2, 5-amino-2,7-dimethyl-4-(4-trifluoromethylphenyl)-1,4,6,7,8,9-hexahydrobenzo[b][1,8]naphthyridine-3-carboxylic acid ethyl ester] | 0.558 | 38.79 | 94.01 | –
CC1=C(C(=O)OC(C)C)C(c2cncnc2)c2c(nc3c(c2N)CC(C)(C)CC3)N1 (centres unmarked) [Compound S26, 5-amino-2,7,7-trimethyl-4-(pyrimidin-5-yl)-1,4,6,7,8,9-hexahydrobenzo[b][1,8]napht hyridine-3-carboxylic acid isopropyl ester] | – | 30.18 | 41.41 | –
CCOC(=O)C1=C(C)Nc2nc3c(c(N)c2C1c1cccc([N+](=O)[O-])c1)CC(F)(F)CC3 (centres unmarked) [Compound S19, 5-amino-7,7-difluoro-2-methyl-4-(3-nitrophenyl)-1,4,6,7,8,9-hexahydrobenzo[b][1,8]naphthyridine-3-carboxylic acid ethyl ester] | 0.333 | – | – | Inhibition rate of L-type Ca2+ channel current (L-type Ca2+ channel [2]; 100 nmol/L compound): 4.12%; Inhibition rate of L-type Ca2+ channel current (L-type Ca2+ channel [2]; 1000 nmol/L compound): 26.29%
C#CCOC(=O)C1=C(C)Nc2nc3c(c(N)c2C1c1cccc([N+](=O)[O-])c1)CC(C)(C)CC3 (centres unmarked) [Compound S37, 5-amino-4-(3-nitrophenyl)-2,7,7-trimethyl-1,4,6,7,8,9-hexahydrobenzo[b][1,8]naphth yridine-3-carboxylic acid propargyl ester] | 1.86 | – | – | –
CCOC(=O)C1=C(C)Nc2nc3c(c(N)c2C1c1cccc(F)c1)CC(C)(C)CC3 (centres unmarked) [Compound S34, 5-amino-2,7,7-trimethyl-4-(3-fluorophenyl)-1,4,6,7,8,9-hexahydrobenzo[b][1,8]napht hyridine-3-carboxylic acid ethyl ester] | 1.78 | 39.53 | 88.96 | –
C=CCOC(=O)C1=C(C)Nc2nc3c(c(N)c2C1c1cccc([N+](=O)[O-])c1)CC(C)(C)CC3 (centres unmarked) [Compound S5, 5-amino-4-(3-nitrophenyl)-2,7,7-trimallyl1,4,6,7,8,9-hexahydrobenzo[b][1,8]naphthyr idine-3-carboxylic acid allyl ester] | 0.77 | 14.40 | 62.43 | –
CCOC(=O)C1=C(C)Nc2nc3c(c(N)c2C1c1ccccc1OC)CC(C)CC3 (centres unmarked) [Compound S28, 5-amino-4-(2-methoxylphenyl)-2,7-dimethyl-1,4,6,7,8,9-hexahydrobenzo[b][1,8]naph thyridine-3-carboxylic acid ethyl ester] | 0.136 | – | – | –
CCOC(=O)C1=C(C)Nc2nc3c(c(N)c2C1c1cccc([N+](=O)[O-])c1)CC(Cl)(Cl)CC3 (centres unmarked) [Compound S20, 5-amino-7,7-dichloro-2-methyl-4-(3-nitrophenyl)-1,4,6,7,8,9-hexahydrobenzo[b][1,8]naphthyridine-3-carboxylic acid ethyl ester] | – | 46.88 | 99.27 | Relative neuron activity (average) ([3]; 0.01 μM): 103.9%; Relative neuron activity (average) ([3]; 0.1 μM): 98.5%; Relative neuron activity (average) ([3]; 1 μM): 47.5%
COC(=O)C1=C(C)Nc2nc3c(c(N)c2C1c1ccccc1)CN(C)CC3 (centres unmarked) [Compound S12, 5-amino-2,7-dimethyl-4-phenyl-1,4,6,7,8,9-hexahydropyrido[2,3-b][1,6]naphthyridine-3-carboxylic acid methyl ester] | – | 34.59 | 52.61 | –
CC1=C(C(=O)OC(C)C)C(c2cccc(Cl)c2)c2c(nc3c(c2N)CC(C)(C)CC3)N1 (centres unmarked) [Compound S33, 5-amino-2,7,7-trimethyl-4-(3-chlorphenyl)-1,4,6,7,8,9-hexahydrobenzo[b][1,8]naphth yridine-3-carboxylic acid isopropyl ester] | 1.84 | – | – | –
COC(=O)C1=C(C)Nc2nc3c(c(N)c2C1c1cccc([N+](=O)[O-])c1)CCC(C)=C3 (centres unmarked) [Compound S18, 5-amino-2,8-dimethyl-4-(3-nitrophenyl)-1,4,6,7-tetrahydrobenzo[b][1,8]naphthyridine-3-carboxylic acid methyl ester] | 0.504 | – | – | –
COC(=O)C1=C(C)NC(C)=C(C(=O)OC)C1c1ccccc1[N+](=O)[O-] [Nifedipine, reference compound] | – | – | – | Inhibition rate of L-type Ca2+ channel current (L-type Ca2+ channel [2]; 100 nmol/L compound): 22.48%; Inhibition rate of L-type Ca2+ channel current (L-type Ca2+ channel [2]; 1000 nmol/L compound): 36.15%
CC1=C(C(=O)OCC2CC2)C(c2ccccc2Cl)c2c(nc3c(c2N)CC(C)(C)CC3)N1 (centres unmarked) [Compound S11, 5-amino-4-(2-chlorphenyl)-2,7,7-trimethyl-1,4,6,7,8,9-hexahydrobenzo[b][1,8]naphth yridine-3-carboxylic acid cyclopropylmethyl ester] | – | 54.69 | 75.06 | –
CCOC(=O)C1=C(C)Nc2nc3c(c(N)c2C1c1cccc([N+](=O)[O-])c1)CC(C)(C)CC3 (centres unmarked) [Compound S31, 5-amino-2,7,7-trimethyl-4-(3-nitrophenyl)-1,4,6,7,8,9-hexahydrobenzo[b][1,8]naphth yridine-3-carboxylic acid ethyl ester] | 3.03 | 19.10 | 93.34 | –
CCOC(=O)C1=C(C)N(C)c2nc3c(c(N)c2C1c1ccccc1Cl)CC(C)(C)CC3 (centres unmarked) [Compound S38, 5-amino-4-(2-chlorphenyl)-1,2,7,7-tetramethyl-1,4,6,7,8,9-hexahydrobenzo[b][1, 8]na phthyridine-3-carboxylic acid ethyl ester] | – | 17.97 | 51.19 | –
CCC1=C(C(=O)OC)C(c2cccc([N+](=O)[O-])c2)c2c(nc3c(c2N)CC(C)(C)CC3)N1 (centres unmarked) [Compound S25, 5-amino-7,7-dimethyl-4-(3-nitrophenyl)-2-ethyl-1,4,6,7,8,9-hexahydrobenzo[b][1,8]n aphthyridine-3-carboxylic acid methyl ester] | 0.842 | 1.02 | 63.52 | –
CC1=C(C(=O)OC2CCC2)C(c2ccccc2F)c2c(nc3c(c2N)CC(C)(C)CC3)N1 (centres unmarked) [Compound S9, 5-amino-4-(2-fluorophenyl)-2,7,7-trimethyl-1,4,6,7,8,9-hexahydrobenzo[b][1,8]napht hyridine-3-carboxylic acid cyclobutyl ester] | 0.919 | 5.22 | 85.01 | –
COCCOC(=O)C1=C(C)Nc2nc3c(c(N)c2C1c1ccccc1Cl)CC(C)(C)CC3 (centres unmarked) [Compound S10, 5-amino-4-(2-chlorphenyl)-2,7,7-trimethyl-1,4,6,7,8,9-hexahydrobenzo[b][1,8]naphth yridine-3-carboxylic acid methoxylethyl ester] | 0.971 | 49.97 | 83.29 | Relative neuron activity (average) ([3]; 0.01 μM): 120.7%; Relative neuron activity (average) ([3]; 0.1 μM): 96.3%; Relative neuron activity (average) ([3]; 1 μM): 70.3%
C#CCOC(=O)C1=C(C)Nc2nc3c(c(N)c2C1c1cccc(F)c1)CC(C)(C)CC3 (centres unmarked) [Compound S36, 5-amino-2,7,7-trimethyl-4-(3-fluorophenyl)-1,4,6,7,8,9-hexahydrobenzo[b][1,8]napht hyridine-3-carboxylic acid propargyl ester] | 1.93 | – | – | –
CC1=C(C(=O)OCCN(C)C)C(c2ccccc2)c2c(nc3c(c2N)CC(F)(F)CC3)N1 (centres unmarked) [Compound S29, 5-amino-7,7-difluoro-2-methyl-4-phenyl-1,4,6,7,8,9-hexahydrobenzo[b][1,8]naphthyr idine-3-carboxylic acid-2-(dimethylamino) ethyl ester] | 0.045 | 17.93 | 57.19 | Inhibition rate of L-type Ca2+ channel current (L-type Ca2+ channel [2]; 100 nmol/L compound): 11.64%; Inhibition rate of L-type Ca2+ channel current (L-type Ca2+ channel [2]; 1000 nmol/L compound): 23.76%
COC(=O)C1=C(C)Nc2nc3c(c(N)c2C1c1cccc([N+](=O)[O-])c1)CC(C)(C)CC3 (centres unmarked) [Compound S30, 5-amino-2,7,7-trimethyl-4-(3-nitrophenyl)-1,4,6,7,8,9-hexahydrobenzo[b][1,8]naphth yridine-3-carboxylic acid methyl ester] | 5.96 | 29.44 | 80.73 | –
